Source: BigSolDB 2.1

C=NCC#N
solubility (mole fraction)
Conditions	278.15 K	283.15 K	288.15 K	293.15 K	298.15 K	303.15 K	308.15 K	313.15 K	318.15 K	323.15 K
in ethanol	0.00175	0.00213	0.00253	0.00303	0.00357	0.00424	0.00501	0.00595	0.00695	0.00814
in methanol	0.00436	0.00516	0.00624	0.00747	0.00894	0.0107	0.0125	0.0145	0.0169	0.0196
in n-butanol	0.000479	0.000578	0.000686	0.000819	0.000985	0.00115	0.00139	0.00162	0.00191	0.00224
in n-propanol	0.00099	0.00125	0.00151	0.00183	0.00222	0.00266	0.00315	0.0037	0.00427	0.00499
in water	0.00083	0.000998	0.00119	0.00143	0.00171	0.00198	0.00235	0.00274	0.0032	0.00371
